Experimental findings from EP0400330A1, “Oxidation hair dyes” (Wella Aktiengesellschaft, priority 1989, dated 1990) are described below.

One data set concerns CHO-Zellen. Kind of data set: Chromosome aberration test in vitro (CA-Test). Format: cell-based. The text has this: (§1) Der große und überraschende technische Fortschritt, der bei der Verwendung von 2-(2,5-Diaminophenyl)ethanol mit den vorstehend genannten Kupplersubstanzen erzielt werden kann, liegt vielmehr in den physiologischen Eigenschaften begründet.
Data set [1] in a line: Sister-Chromatide-Exchange-Test (SCE-Test). Format: cell-based.
From the text: as §1

The test system of data set [2] is Salmonella typhimurium. Kind of data set: Ames test of hair dye solutions under oxidative conditions. As to conditions: hair dye solution containing the developer substance, unter oxidativen Bedingungen.
For data set [3], the system named is Salmonella typhimurium. Kind of data set: Ames mutagenicity test of the developer substance. Format: cell-based.
From the text: as §1
In general terms: The Ames test uses bacterial strains that need an amino acid and regain growth without it when mutated back.

Another data set concerns Mouse Lymphoma. Kind of data set: Mouse Lymphoma Test (point mutation in vitro). Format: cell-based. As to conditions: Punktmutation in vitro.
From the text: as §1

In data set [4] the test system is Salmonella typhimurium-Stämmen TA97, TA98 und TA100. Kind of data set: Ames test of dyed hair strands. Format: cell-based. The arrangement: key: +: mutagen; (+): schwach mutagen; -: nicht mutagen. As to conditions: hair dyed 30 Minuten at 40 Grad Celsius, in Anwesenheit von S9-Mix. The text has this: Versuchsbedingungen: Haarsträhnchen aus 30-50 Haaren werden mit einem Mittel nach Beispiel 1, bei dem die Kupplersubstanz jeweils im äquimolaren Verhältnis zur Entwicklersubstanz enthalten war, getränkt. Die Strähnen wurden anschließend 30 Minuten lang bei 40 Grad Celsius im Klimaschrank aufbewahrt, sodann gründlich mit Wasser gespült und schließlich getrocknet. Die so gefärbten Haar wurden nun im 2,5 cm lange Stücke geschnitten und nach der Methodik von B.N. Ames an Salmonella typhimurium-Stämmen TA97, TA98 und TA100 in Anwesenheit von S9-Mix geprüft.

Data set [5] in a line: Mutagenicity test battery (Ames, CA-Test, Mouse Lymphoma Test, SCE-Test), individual test not specified. Format: cell-based. As to conditions: in some of the tests Ames, not said which.
From the text: as §1

A short description of data set [6]: Sensitising property (test not described). The text has this: Das 2-(2,5-Diaminophenyl)ethanol wird seit einiger Zeit als Bestandteil von Oxidationshaarfärbemitteln in der Patentliteratur erwähnt. Als möglicher Bestandteil von Oxidationshaarfärbemitteln ist es zum Beispiel in der eigenen europäischen Offenlegungsschrift 0 166 155 sowie in den eigenen deutschen Offenlegungsschriften 3 625 916, 3 627 398 und 3 706 565 sowie auch in der DE-OS 3 545 371 aufgeführt. Ferner fällt das 2-(2,5-Diaminophenyl)ethanol unter eine allgemeine Formel für 1-Hydroxyalkyl-2,5-diaminobenzolverbindungen, welche als Entwicklersubstanzen für Oxidationshaarfärbemittel in der eigenen europäischen Offenlegungsschrift 0 007 537 empfohlen werden. Die dort mehrfach konkret genannte Verbindung 1-Hydroxymethyl-2,5-diaminobenzol (2,5Diaminobenzylalkohol) hat sich jedoch als sensibilisierend erwiesen. Die ausgezeichnete Eignung der Entwicklersubstanz 2-(2,5-Diaminophenyl)-ethanol in Kombination mit den vorstehend genannten Kupplersubstanzen zur Lösung der gestellten Aufgabe wurde bisher nicht erkannt. Dementsprechend sind die erfindungsgemäßen EntwicklersubstanzKupplersubstanz-Kombinationen in keiner dieser Druckschriften beschrieben.
Die konkrete Darstellung des 2-(2,5-Diaminophenyl)ethanols ist bisher ebenfalls weder beschrieben noch hat diese Entwicklersubstanz Eingang in die Haarfärbepraxis gefunden. […]

The mark [7] stands for this setting: Kupplersubstanz 2-Methylresorcin, äquimolar to the developer.
Where [8] appears, read: Kupplersubstanz 3,4-Methylendioxyphenol, äquimolar to the developer.
Where [9] appears, read: Kupplersubstanz 3-Aminophenol, äquimolar to the developer.
Where [10] appears, read: Kupplersubstanz Resorcin, äquimolar to the developer.

Molecules are shown by their SMILES.

For `Nc1ccc(N)c(CCO)c1` [2-(2,5-Diaminophenyl)ethanol], the “Mutagenität im Chromosomenaberrationstest an CHO-Zellen in vitro (CA-Test)” value with CHO-Zellen is “keinerlei Mutagenität”. Moreover, in data set [1], the “Mutagenität im Sister-Chromatide-Exchange-Test (SCE-Test)” value is “keinerlei Mutagenität”. Further, the “mutagene Wirkung von Haarfärbelösungen im Amestest” value in the data set with Salmonella typhimurium [2] is given as “nicht mutagen”. The “Mutagenität im Mutagenitätstest nach Ames” value in the data set with Salmonella typhimurium [3] (in Abwesenheit von Wasserstoffperoxid) and in the data set on Salmonella typhimurium [3] (in Anwesenheit von Wasserstoffperoxid) was “keinerlei Mutagenität” each time. Also, the “Mutagenität im Mouse Lymphoma Test” value in the data set with Mouse Lymphoma is reported as “keinerlei Mutagenität”. The “Amesteste von gefärbten Haarsträhnen” value in data set [4] (setting [7]), in data set [4] (setting [8]), in data set [4] (setting [9]), in data set [4] (setting [10]) and in data set [4] (ohne Kupplersubstanz) was “-” in each case.
For `Nc1ccc(N)cc1` [p-Phenylendiamin, reference compound], in the data set on Salmonella typhimurium [2], the “mutagene Wirkung von Haarfärbelösungen im Amestest” value was “mutagenes Potential”. In addition, the “Amesteste von gefärbten Haarsträhnen” value in data set [4] (setting [7]) is reported as “+”; in data set [4] (setting [8]), “+”; in data set [4] (setting [9]), “(+)”; in data set [4] (setting [10]), “(+)”; in data set [4] (ohne Kupplersubstanz), “+”.
Turning to `Nc1ccc(N)c(CO)c1` [2,5-Diaminobenzylalkohol, 1-Hydroxymethyl-2,5-diaminobenzol], the “Mutagenität in einigen dieser Teste” value in data set [5] is on record as “mutagenes Potential”. In addition, in data set [6], the “sensibilisierende Eigenschaften” value is “sensibilisierend”.
